The results in this text go back to the NIST ThermoML archive (doi:10.1016/j.jct.2019.03.036).

Numbers after ± are expanded uncertainties.

For the data set the following is noted: Liquid, Ebulliometric method (Recirculating still).

For orientation: vapor or sublimation pressure means the pressure of vapour in equilibrium with the condensed phase. Turning to `C[S+](C)[O-]` [dimethyl sulfoxide], the “vapor or sublimation pressure” value (463.27 K) is reported as 101.3 ± 3.6 kPa.

With `CCOC(C)=O` [ethyl acetate], the “vapor or sublimation pressure” value (350.29 K) was 101.3 ± 3.6 kPa.

For `CCCOC(C)=O` [propyl ethanoate], the “vapor or sublimation pressure” value (374.62 K) is given as 101.3 ± 3.6 kPa.
